Consider 5 compounds from patent US6653478B2, “Substituted benzimidazol-2-ones as vasopressin receptor antagonists and neuropeptide Y modulators” (Ortho-McNeil Pharmaceutical, Inc., priority 2000, dated 2003).

Where a name gives a salt, the structure may show the parent alone.

This assay deals with human V1a receptor (Homo sapiens, UniProt P37288). Put plainly: V1a functional assay, intracellular calcium mobilization in transfected HEK-293 cells (FLIPR). As to conditions: challenge 1 nM AVP; read-out: Cell-Based Functional activity V1a IC50. The arrangement: expressed in transfected cells; host or cells: HEK-293. Here is the method: V1a, V1b or V2 Functional Assay
human V1a receptor, sequence (P37288 whole entry): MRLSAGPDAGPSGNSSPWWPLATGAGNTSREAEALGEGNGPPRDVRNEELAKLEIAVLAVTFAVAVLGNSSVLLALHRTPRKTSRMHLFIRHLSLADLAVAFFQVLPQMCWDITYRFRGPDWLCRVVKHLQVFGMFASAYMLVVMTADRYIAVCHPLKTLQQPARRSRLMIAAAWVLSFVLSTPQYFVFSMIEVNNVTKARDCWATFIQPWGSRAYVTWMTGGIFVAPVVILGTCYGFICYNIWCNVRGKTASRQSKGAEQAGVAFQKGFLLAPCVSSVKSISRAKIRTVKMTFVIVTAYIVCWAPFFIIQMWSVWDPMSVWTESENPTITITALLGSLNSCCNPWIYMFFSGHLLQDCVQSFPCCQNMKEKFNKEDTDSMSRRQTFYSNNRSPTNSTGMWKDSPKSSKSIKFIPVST
HEK-293 cells were grown in DMEM media supplemented with 10% FBS and glutamine (Gibco BRL, Grand Island, N.Y.). Once transfected the cells were passed biweekly by trypsinization and seeded into 96 well plates at 33,000 cells per well. HEK-293 were transfected with human V1a, V1b or V2 DNA using DMRIE-C reagent from Life Technologies, Inc., Grand Island, N.Y. Cells were tested for their responsiveness to vasopressin 48 hours after transfection. Stable lines were generated by selecting cells grown in culture media containing geneticin (500 μg/ml, Life Technologies).
Intracellular calcium mobilization was measured in HEK-293 cells transfected to express either human V1a, oxytocin or V1b receptors. Cells were plated into black 96-well Packard Clear-View plates 4 to 7 days prior to use. The cells were loaded with fluo-3 AM (Molecular Probes, Inc., Eugene, Oreg.) in buffer (25 mM Hepes, 125 mM NaCl, 1 gm/l glucose, 0.1% BSA, 5 mM KCl, 0.5 mM CaCl2, 0.5 mM MgCl2, pH 7.45) containing Pluronic (Molecular Probes) Cells were incubated with 5 μM fluo-3 AM for 1 hour shielded from light at room temperature. Intracellular fluorescence was measured using FLIPR (fluorometric imaging plate reader; Molecular Devices, Inc., Sunnyvale, Calif.). The FLIPR protocol called for images to be collected at one second intervals with 50 μl of the test compound added after the initial 10 images. An additional 70 images were then taken to detect any compound agonistic activity. FLIPR then added 50 μl of agonist peptide and collected a final 40 images for quantitating compound antagonistic activity. V1a- and V1b-expressing HEK cells were challenged with 1 nM and 0.5 nM AVP, respectively. Oxytocin-expressing HEK cells were challenged with 0.5 nM oxytocin (Peninsula Labs).
The data from the cAMP accumulation and the calcium mobilization assays are expressed as IC50 values as determined from dose response curves.
Turning to “1-[(N1-Piperidinocarbothioyl-(1-L-carboxymethyl-2-phenylamino)-4-yl]-3-(3-aminopropyl)-1,3-dihydrobenzimidazol-2-one Hydrochloride [Compound 57]”, the half-maximal inhibitory concentration (IC50) came to 482 nM.

Regarding `CCN(CC)CCn1c(=O)n(C2CCN(C(=S)NC(c3ccccc3)c3ccccc3)CC2)c2ccccc21` [Compound 35, 1-(N1-Piperidinocarbothioyldiphenylmethylamino-4-yl)-3-(2-diethyaminoethyl)-1,3-dihydrobenzimidazol-2-one], the IC50 worked out at 458 nM.

Turning to `CCN(CC)CCn1c(=O)n(C2CCN(C(=S)NC(Cc3ccccc3)C(=O)OC)CC2)c2ccccc21` [Compound 42, 1-(N1-Piperidinocarbothioyl-(2-phenyl-1-L-carboxymethyl)amino-4-yl)-3-(2-diethyaminoethyl)-1,3-dihydrobenzimidazol-2-one], the IC50 came out at 810 nM.

For the compound `NCCCn1c(=O)n(C2CCN(C(=S)NC(c3ccccc3)c3ccccc3)CC2)c2ccccc21` [Compound 55, 1-[(N1-Piperidinocarbothioyldiphenylmethylamino)-4-yl]-3-(3-aminopropyl)-1,3-dihydrobenzimidazol-2-one Monohydrochloride], the concentration for half-maximal inhibition (IC50) worked out at 139 nM.

For the compound `N=C(N)NCCCn1c(=O)n(C2CCN(C(=S)NC(c3ccccc3)c3ccccc3)CC2)c2ccccc21` [Compound 59, 1-[(N1-Piperidinocarbothioyldiphenylmethylamino)-4-yl]-3-(3-guanidinopropyl)-1,3-dihydrobenzimidazol-2-one], the IC50 turned out to be 240 nM.

By IC50 is commonly meant the concentration that gives 50% inhibition.
